Measured values: patent US8748376B2, “Stable formulations of peptides” (Novo Nordisk A/S, priority 2004, dated 2014)

Assay: Thioflavine T stress test of heat treated liraglutide preparations
Format: physicochemical
Protocol: The physical stability of the liraglutide preparations was evaluated by the use of a florescence method; the Thioflavine T-test where the histological thiazole dye Thioflavine T (ThT) was used as an indicator of fibril formation. By the use of Thioflavine T-test it was possible to determine the presence of fibrils in the different formulations. The method was based on the fluorescent characteristics of ThT.
ThT was used in a stress test applying the different formulations in microtiter plates with ThT at 35° C. and shaken with 350 rpm until the formulations were fibrillated. Graphs of the fluorescence intensity (FI) as a function of time (sec) were obtained.

Structure (SMILES): CCCCCCCCCCCCCCCC(=O)N[C@@H](CCC(=O)NCCCC[C@H](NC(=O)[C@H](C)NC(=O)[C@H](C)NC(=O)[C@H](CCC(N)=O)NC(=O)CNC(=O)[C@H](CCC(=O)O)NC(=O)[C@H](CC(C)C)NC(=O)[C@H](Cc1ccc(O)cc1)NC(=O)[C@H](CO)NC(=O)[C@H](CO)NC(=O)[C@@H](NC(=O)[C@H](CC(=O)O)NC(=O)[C@H](CO)NC(=O)[C@@H](NC(=O)[C@H](Cc1ccccc1)NC(=O)[C@@H](NC(=O)CNC(=O)[C@H](CCC(=O)O)NC(=O)[C@H](C)NC(=O)[C@@H](N)Cc1cnc[nH]1)[C@@H](C)O)[C@@H](C)O)C(C)C)C(=O)N[C@@H](CCC(=O)O)C(=O)N[C@@H](Cc1ccccc1)C(=O)N[C@H](C(=O)N[C@@H](C)C(=O)N[C@@H](Cc1c[nH]c2ccccc12)C(=O)N[C@@H](CC(C)C)C(=O)N[C@H](C(=O)N[C@@H](CCCNC(=N)N)C(=O)NCC(=O)N[C@@H](CCCNC(=N)N)C(=O)NCC(=O)O)C(C)C)[C@@H](C)CC)C(=O)O [liraglutide, Arg^34, Lys^26(N^ε-(γ-Glu(N^α-hexadecanoyl)))-GLP-1(7-37)]
- physical stability, time of heat treatment (60 and 80° C., 120 minutes in comparison to 1 minute of heat treatment): improve the physical stability significantly
- physical stability by increasing the temperature of heat treatment (from 22 to 50-80° C. at pH 9-10): significantly improved
- physical stability as temperature of heat treatment was increased (heat treatment 22 to 80° C.): significantly improved
- physical stability, time of heat treatment (pH 9-10, all temperatures, 15 to 20 minutes compared to 1 minute of heat treatment): improve the physical stability significantly
